{"source": "PubChem BioAssay AID2060496", "about": "(Molecular Pharmacology Branch, DTP, NCI, 2025);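 also: spheroids exposed to drugs for seven days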;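 as to viability, T/C: 100% = DMSO vehicle control viability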", "tested_on": "276233-004-R-J1-PDC complex spheroid viability", "assay": "Anticancer human tumor 276233-004-R-J1-PDC patient-derived colon adenocarcinoma cell line growth inhibition [GQUAD]", "conditions": "for IC50: curve of first compound; for viability, T/C: stronger effect = lower value", "method_in_brief": "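Tumor cells were grown as complex spheroids with HUVEC endothelial cells and mesenchymal stem cells as stroma. G-quadruplex stabilizers were combined with targeted agents over half-log dilutions from near the clinical Cmax, or from 10 microM.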", "key": {"[1]": {"conditions": "second compound 0.0316 µM, first compound 0.0316 µM"}, "[2]": {"conditions": "second compound 0.0316 µM, first compound 0.316 µM"}, "[3]": {"conditions": "second compound 0.1 µM, first compound 0.0316 µM"}, "[4]": {"conditions": "second compound 0.1 µM, first compound 0.316 µM"}, "[5]": {"conditions": "second compound 0.316 µM, first compound 0.0316 µM"}, "[6]": {"conditions": "second compound 0.316 µM, first compound 0.316 µM"}, "[7]": {"conditions": "second compound 1 µM, first compound 0.0316 µM"}, "[8]": {"conditions": "second compound 1 µM, first compound 0.316 µM"}, "[9]": {"conditions": "second compound 3.16 µM, first compound 0.0316 µM"}, "[10]": {"conditions": "second compound 3.16 µM, first compound 0.316 µM"}, "[11]": {"conditions": "second compound 10 µM, first compound 0.0316 µM"}, "[12]": {"conditions": "second compound 10 µM, first compound 0.316 µM"}}}
{"smiles": "Cn1ncnc1[C@H]1c2n[nH]c(=O)c3cc(F)cc(c23)N[C@@H]1c1ccc(F)cc1", "note": "+ CN(C)c1ccc(Nc2c3ccc(NC(=O)CCN4CCCC4)cc3nc3cc(NC(=O)CCN4CCCC4)ccc23)cc1", "values": [{"measurement": "IC50", "setting": "second compound 0.0316 µM", "result": "> 0.316", "unit": "µM"}, {"measurement": "IC50", "setting": "second compound 0.1 µM", "result": "> 0.316", "unit": "µM"}, {"measurement": "IC50", "setting": "second compound 0.316 µM", "result": "> 0.316", "unit": "µM"}, {"measurement": "IC50", "setting": "second compound 1 µM", "result": "> 0.316", "unit": "µM"}, {"measurement": "IC50", "setting": "second compound 3.16 µM", "result": "> 0.316", "unit": "µM"}, {"measurement": "IC50", "setting": "second compound 10 µM", "result": "< 0.000999", "unit": "µM"}, {"measurement": "viability, T/C", "setting": "second compound 0.0316 µM, first compound 0.000999 µM", "result": 81.5, "unit": "%"}, {"measurement": "viability, T/C", "setting": "second compound 0.0316 µM, first compound 0.00316 µM", "result": 96.6, "unit": "%"}, {"measurement": "viability, T/C", "setting": "second compound 0.0316 µM, first compound 0.00999 µM", "result": 85.2, "unit": "%"}, {"measurement": "viability, T/C", "setting": "[1]", "result": 88.2, "unit": "%"}, {"measurement": "viability, T/C", "setting": "second compound 0.0316 µM, first compound 0.0999 µM", "result": 94.6, "unit": "%"}, {"measurement": "viability, T/C", "setting": "[2]", "result": 97.8, "unit": "%"}, {"measurement": "viability, T/C", "setting": "second compound 0.1 µM, first compound 0.000999 µM", "result": 90.3, "unit": "%"}, {"measurement": "viability, T/C", "setting": "second compound 0.1 µM, first compound 0.00316 µM", "result": 81.3, "unit": "%"}, {"measurement": "viability, T/C", "setting": "second compound 0.1 µM, first compound 0.00999 µM", "result": 90.7, "unit": "%"}, {"measurement": "viability, T/C", "setting": "[3]", "result": 84.7, "unit": "%"}, {"measurement": "viability, T/C", "setting": "second compound 0.1 µM, first compound 0.0999 µM", "result": 70.4, "unit": "%"}, {"measurement": "viability, T/C", "setting": "[4]", "result": 64.3, "unit": "%"}, {"measurement": "viability, T/C", "setting": "second compound 0.316 µM, first compound 0.000999 µM", "result": 68, "unit": "%"}, {"measurement": "viability, T/C", "setting": "second compound 0.316 µM, first compound 0.00316 µM", "result": 62.4, "unit": "%"}, {"measurement": "viability, T/C", "setting": "second compound 0.316 µM, first compound 0.00999 µM", "result": 69.6, "unit": "%"}, {"measurement": "viability, T/C", "setting": "[5]", "result": 61.3, "unit": "%"}, {"measurement": "viability, T/C", "setting": "second compound 0.316 µM, first compound 0.0999 µM", "result": 61.9, "unit": "%"}, {"measurement": "viability, T/C", "setting": "[6]", "result": 67.4, "unit": "%"}, {"measurement": "viability, T/C", "setting": "second compound 1 µM, first compound 0.000999 µM", "result": 57.5, "unit": "%"}, {"measurement": "viability, T/C", "setting": "second compound 1 µM, first compound 0.00316 µM", "result": 51, "unit": "%"}, {"measurement": "viability, T/C", "setting": "second compound 1 µM, first compound 0.00999 µM", "result": 42.3, "unit": "%"}, {"measurement": "viability, T/C", "setting": "[7]", "result": 58.1, "unit": "%"}, {"measurement": "viability, T/C", "setting": "second compound 1 µM, first compound 0.0999 µM", "result": 48, "unit": "%"}, {"measurement": "viability, T/C", "setting": "[8]", "result": 52.8, "unit": "%"}, {"measurement": "viability, T/C", "setting": "second compound 3.16 µM, first compound 0.000999 µM", "result": 62.4, "unit": "%"}, {"measurement": "viability, T/C", "setting": "second compound 3.16 µM, first compound 0.00316 µM", "result": 60.7, "unit": "%"}, {"measurement": "viability, T/C", "setting": "second compound 3.16 µM, first compound 0.00999 µM", "result": 54.5, "unit": "%"}, {"measurement": "viability, T/C", "setting": "[9]", "result": 60.7, "unit": "%"}, {"measurement": "viability, T/C", "setting": "second compound 3.16 µM, first compound 0.0999 µM", "result": 59.9, "unit": "%"}, {"measurement": "viability, T/C", "setting": "[10]", "result": 52.7, "unit": "%"}, {"measurement": "viability, T/C", "setting": "second compound 10 µM, first compound 0.000999 µM", "result": 47.2, "unit": "%"}, {"measurement": "viability, T/C", "setting": "second compound 10 µM, first compound 0.00316 µM", "result": 43.1, "unit": "%"}, {"measurement": "viability, T/C", "setting": "second compound 10 µM, first compound 0.00999 µM", "result": 55.8, "unit": "%"}, {"measurement": "viability, T/C", "setting": "[11]", "result": 47.6, "unit": "%"}, {"measurement": "viability, T/C", "setting": "second compound 10 µM, first compound 0.0999 µM", "result": 57.1, "unit": "%"}, {"measurement": "viability, T/C", "setting": "[12]", "result": 54.2, "unit": "%"}]}
{"smiles": "O=c1[nH]cc(F)c(=O)[nH]1", "note": "+ Cc1cnc(CNC(=O)c2c(=O)c3ccc(N4CCCN(C)CC4)nc3n3c2sc2ccccc23)cn1", "values": [{"measurement": "IC50", "setting": "second compound 0.0316 µM", "result": "> 10", "unit": "µM"}, {"measurement": "IC50", "setting": "second compound 0.1 µM", "result": "> 10", "unit": "µM"}, {"measurement": "IC50", "setting": "second compound 0.316 µM", "result": "> 10", "unit": "µM"}, {"measurement": "IC50", "setting": "second compound 1 µM", "result": "> 10", "unit": "µM"}, {"measurement": "IC50", "setting": "second compound 3.16 µM", "result": "> 10", "unit": "µM"}, {"measurement": "IC50", "setting": "second compound 10 µM", "result": "> 10", "unit": "µM"}, {"measurement": "viability, T/C", "setting": "[1]", "result": 86.8, "unit": "%"}, {"measurement": "viability, T/C", "setting": "second compound 0.0316 µM, first compound 0.1 µM", "result": 82.2, "unit": "%"}, {"measurement": "viability, T/C", "setting": "[2]", "result": 90.7, "unit": "%"}, {"measurement": "viability, T/C", "setting": "second compound 0.0316 µM, first compound 1 µM", "result": 81.2, "unit": "%"}, {"measurement": "viability, T/C", "setting": "second compound 0.0316 µM, first compound 3.16 µM", "result": 98.8, "unit": "%"}, {"measurement": "viability, T/C", "setting": "second compound 0.0316 µM, first compound 10 µM", "result": 97.5, "unit": "%"}, {"measurement": "viability, T/C", "setting": "[3]", "result": 97.1, "unit": "%"}, {"measurement": "viability, T/C", "setting": "second compound 0.1 µM, first compound 0.1 µM", "result": 96.5, "unit": "%"}, {"measurement": "viability, T/C", "setting": "[4]", "result": 89.1, "unit": "%"}, {"measurement": "viability, T/C", "setting": "second compound 0.1 µM, first compound 1 µM", "result": 89.7, "unit": "%"}, {"measurement": "viability, T/C", "setting": "second compound 0.1 µM, first compound 3.16 µM", "result": 95.1, "unit": "%"}, {"measurement": "viability, T/C", "setting": "second compound 0.1 µM, first compound 10 µM", "result": 102, "unit": "%"}, {"measurement": "viability, T/C", "setting": "[5]", "result": 87.4, "unit": "%"}, {"measurement": "viability, T/C", "setting": "second compound 0.316 µM, first compound 0.1 µM", "result": 99.8, "unit": "%"}, {"measurement": "viability, T/C", "setting": "[6]", "result": 99.1, "unit": "%"}, {"measurement": "viability, T/C", "setting": "second compound 0.316 µM, first compound 1 µM", "result": 85.6, "unit": "%"}, {"measurement": "viability, T/C", "setting": "second compound 0.316 µM, first compound 3.16 µM", "result": 98.6, "unit": "%"}, {"measurement": "viability, T/C", "setting": "second compound 0.316 µM, first compound 10 µM", "result": 99.1, "unit": "%"}, {"measurement": "viability, T/C", "setting": "[7]", "result": 78.2, "unit": "%"}, {"measurement": "viability, T/C", "setting": "second compound 1 µM, first compound 0.1 µM", "result": 87.6, "unit": "%"}, {"measurement": "viability, T/C", "setting": "[8]", "result": 80.4, "unit": "%"}, {"measurement": "viability, T/C", "setting": "second compound 1 µM, first compound 1 µM", "result": 90, "unit": "%"}, {"measurement": "viability, T/C", "setting": "second compound 1 µM, first compound 3.16 µM", "result": 92.7, "unit": "%"}, {"measurement": "viability, T/C", "setting": "second compound 1 µM, first compound 10 µM", "result": 94.4, "unit": "%"}, {"measurement": "viability, T/C", "setting": "[9]", "result": 82.7, "unit": "%"}, {"measurement": "viability, T/C", "setting": "second compound 3.16 µM, first compound 0.1 µM", "result": 74.9, "unit": "%"}, {"measurement": "viability, T/C", "setting": "[10]", "result": 79.2, "unit": "%"}, {"measurement": "viability, T/C", "setting": "second compound 3.16 µM, first compound 1 µM", "result": 82.8, "unit": "%"}, {"measurement": "viability, T/C", "setting": "second compound 3.16 µM, first compound 3.16 µM", "result": 83.7, "unit": "%"}, {"measurement": "viability, T/C", "setting": "second compound 3.16 µM, first compound 10 µM", "result": 82.2, "unit": "%"}, {"measurement": "viability, T/C", "setting": "[11]", "result": 69.8, "unit": "%"}, {"measurement": "viability, T/C", "setting": "second compound 10 µM, first compound 0.1 µM", "result": 79.3, "unit": "%"}, {"measurement": "viability, T/C", "setting": "[12]", "result": 80.5, "unit": "%"}, {"measurement": "viability, T/C", "setting": "second compound 10 µM, first compound 1 µM", "result": 86.2, "unit": "%"}, {"measurement": "viability, T/C", "setting": "second compound 10 µM, first compound 3.16 µM", "result": 61.8, "unit": "%"}, {"measurement": "viability, T/C", "setting": "second compound 10 µM, first compound 10 µM", "result": 79.6, "unit": "%"}]}
